These are literature values, as cited in patent US12514830B2, “Idebenone for the treatment of Acute Respiratory Distress Syndrome (ARDS) in patients diagnosed with a coronavirus infection” (BEMIDO SA, priority 2020, dated 2026).

For the data set, the system named is patients with Duchenne muscular dystrophy (DMD). To be noted: long-term treatment, for up to 6 years, real-world setting.

As for `COC1=C(OC)C(=O)C(CCCCCCCCCCO)=C(C)C1=O` [idebenone, 2-(10-hydroxydecyl)-5,6-dimethoxy-3-methyl-cyclohexa-2,5-diene-1,4-dione], the “rate of respiratory function loss” value is on record as “consistently reduced the rate of respiratory function loss”.
